The experiment relates to RS4; 11 cell line. The experiment is described as follows: CellTiter-Glo Luminescent Cell Viability Assay, cell growth inhibition. Format: cell-based. To be noted: Homo sapiens, 96 h, 4 days. As to the method: Cell growth inhibitory activity of representative MDM2 protein degraders was determined using CellTiter-Glo® Luminescent Cell Viability Assay. Cells were seeded in 384-well white opaque cell culture plates at a density of 2,000 cells/well with serially diluted compounds and incubated at 37° C. in an atmosphere of 95% air and 5% CO2 for 4 days. Cell viability was determined using the CellTiter-Glo® Luminescent Cell Viability Assay Kit (Promega, Madison, WI) according to the manufacture's instruction. Briefly, a volume of CellTiter-Glo® Reagent equal to the volume of cell culture medium was added to each well, and then the plates were incubated at room temperature for 10-20 minutes. The luminescent signal was measured using a Tecan Infinite M1000 multimode microplate reader (Tecan, Morrisville, NC). The half maximal inhibitory concentration (IC50) was calculated using the GraphPad Prism 5 software (GraphPad Software, La Jolla, CA). Cpd. […] The structure of Cpd.
(ATP-based viability assays read luminescence as a measure of living cells.)
`O=C1CCC(N2C(=O)c3cccc(NCCCCCNC(=O)c4ccc(NC(=O)[C@@H]5NC6(CCCCC6)[C@@]6(C(=O)Nc7cc(Cl)ccc76)[C@H]5c5cccc(Cl)c5F)cc4)c3C2=O)C(=O)N1` (stereo partly drawn) [Cpd. No. 10, (3′R,4'S,5′R)-6″-chloro-4′-(3-chloro-2-fluorophenyl)-N-(4-((5-((2-(2,6-dioxopiperidin-3-yl)-1,3-dioxoisoindolin-4-yl)amino)pentyl)carbamoyl)phenyl)-2″-oxodispiro[cyclohexane-1,2′-pyrrolidine-3′,3″-indoline]-5′-carboxamide] gave an IC50 of 12 nM.
With `O=C1CCC(N2C(=O)c3cccc(NCCCCCCCNC(=O)c4ccc(NC(=O)[C@@H]5NC6(CCCCC6)[C@@]6(C(=O)Nc7cc(Cl)ccc76)[C@H]5c5cccc(Cl)c5F)cc4)c3C2=O)C(=O)N1` (stereo partly drawn) [Cpd. No. 12, (3′R,4'S,5′R)-6″-chloro-4′-(3-chloro-2-fluorophenyl)-N-(4-((7-((2-(2,6-dioxopiperidin-3-yl)-1,3-dioxoisoindolin-4-yl)amino)heptyl)carbamoyl)phenyl)-2″-oxodispiro[cyclohexane-1,2′-pyrrolidine-3′,3″-indoline]-5′-carboxamide] the figure was 100 nM; with `O=C1CCC(N2C(=O)c3cccc(NCCCOCCOCCOCCCNC(=O)c4ccc(NC(=O)[C@@H]5NC6(CCCCC6)[C@@]6(C(=O)Nc7cc(Cl)ccc76)[C@H]5c5cccc(Cl)c5F)nc4)c3C2=O)C(=O)N1` (stereo partly drawn) [Cpd. No. 25, (3′R,4'S,5′R)-6″-chloro-4′-(3-chloro-2-fluorophenyl)-N-(5-((3-(2-(2-(3-((2-(2,6-dioxopiperidin-3-yl)-1,3-dioxoisoindolin-4-yl)amino)propoxy)ethoxy)ethoxy)propyl)carbamoyl)pyridin-2-yl)-2″-oxodispiro[cyclohexane-1,2′-pyrrolidine-3′,3″-indoline]-5′-carboxamide], 7.4 nM; with `O=C1CCC(N2C(=O)c3cccc(NCCOCCOCCNC(=O)c4ccc(NC(=O)[C@@H]5NC6(CCCCC6)[C@@]6(C(=O)Nc7cc(Cl)ccc76)[C@H]5c5cccc(Cl)c5F)cn4)c3C2=O)C(=O)N1` (stereo partly drawn) [Cpd. No. 26, (3′R,4'S,5′R)-6″-chloro-4′-(3-chloro-2-fluorophenyl)-N-(6-((2-(2-(2-((2-(2,6-dioxopiperidin-3-yl)-1,3-dioxoisoindolin-4-yl)amino)ethoxy)ethoxy)ethyl)carbamoyl)pyridin-3-yl)-2″-oxodispiro[cyclohexane-1,2′-pyrrolidine-3′,3″-indoline]-5′-carboxamide], 8 nM.
`O=C1CCC(N2C(=O)c3cccc(NCCCOCCOCCOCCCNC(=O)c4ccc(NC(=O)[C@@H]5NC6(CCCCC6)[C@@]6(C(=O)Nc7cc(Cl)ccc76)[C@H]5c5cccc(Cl)c5F)cn4)c3C2=O)C(=O)N1` (stereo partly drawn) [Cpd. No. 27, (3′R,4'S,5′R)-6″-chloro-4′-(3-chloro-2-fluorophenyl)-N-(6-((3-(2-(2-(3-((2-(2,6-dioxopiperidin-3-yl)-1,3-dioxoisoindolin-4-yl)amino)propoxy)ethoxy)ethoxy)propyl)carbamoyl)pyridin-3-yl)-2″-oxodispiro[cyclohexane-1,2′-pyrrolidine-3′,3″-indoline]-5′-carboxamide] gave a concentration for half-maximal inhibition (IC50) of 4.6 nM.
With `O=C1CCC(N2Cc3c(NC(=O)CCCCNC(=O)c4ccc(NC(=O)[C@@H]5NC6(CCCCC6)[C@@]6(C(=O)Nc7cc(Cl)ccc76)[C@H]5c5cccc(Cl)c5F)cc4)cccc3C2=O)C(=O)N1` (stereo partly drawn) [Cpd. No. 28, (3′R,4'S,5′R)-6″-chloro-4′-(3-chloro-2-fluorophenyl)-N-(4-((5-((2-(2,6-dioxopiperidin-3-yl)-1-oxoisoindolin-4-yl)amino)-5-oxopentyl)carbamoyl)phenyl)-2″-oxodispiro[cyclohexane-1,2′-pyrrolidine-3′,3″-indoline]-5′-carboxamide] the figure was 7 nM.

Broadly, the IC50 is the point on the concentration scale where inhibition reaches its midpoint. Low readings indicate inhibition by little substance, high ones a need for much substance.
